From ChEMBL document CHEMBL1201862, “PubChem BioAssay data set” (2004)
Active and inactive are the calls of the source.

Legend:
[1] = biological target: T1, Tyrosyl-DNA phosphodiesterase 2 (Homo sapiens, UniProt O95551); experiment: potency against TDP2 phosphodiesterase activity – biochemical, epi absorbance, IC50, dose response (AID 743297)
T1 sequence (O95551 whole entry): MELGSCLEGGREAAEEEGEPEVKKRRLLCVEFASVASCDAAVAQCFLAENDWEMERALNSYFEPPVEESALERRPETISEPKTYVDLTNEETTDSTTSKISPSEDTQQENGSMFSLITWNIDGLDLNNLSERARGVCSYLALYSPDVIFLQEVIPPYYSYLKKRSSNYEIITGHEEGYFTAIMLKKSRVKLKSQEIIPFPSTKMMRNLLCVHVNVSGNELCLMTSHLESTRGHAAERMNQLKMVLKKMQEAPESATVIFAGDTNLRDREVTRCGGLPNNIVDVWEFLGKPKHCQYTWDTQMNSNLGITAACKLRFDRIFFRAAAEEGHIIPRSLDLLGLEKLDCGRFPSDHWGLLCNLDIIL

[2] = biological target: T2, Histone-lysine N-methyltransferase NSD2 (Homo sapiens, UniProt O96028); assay type: biochemical
T2 sequence (O96028 whole entry): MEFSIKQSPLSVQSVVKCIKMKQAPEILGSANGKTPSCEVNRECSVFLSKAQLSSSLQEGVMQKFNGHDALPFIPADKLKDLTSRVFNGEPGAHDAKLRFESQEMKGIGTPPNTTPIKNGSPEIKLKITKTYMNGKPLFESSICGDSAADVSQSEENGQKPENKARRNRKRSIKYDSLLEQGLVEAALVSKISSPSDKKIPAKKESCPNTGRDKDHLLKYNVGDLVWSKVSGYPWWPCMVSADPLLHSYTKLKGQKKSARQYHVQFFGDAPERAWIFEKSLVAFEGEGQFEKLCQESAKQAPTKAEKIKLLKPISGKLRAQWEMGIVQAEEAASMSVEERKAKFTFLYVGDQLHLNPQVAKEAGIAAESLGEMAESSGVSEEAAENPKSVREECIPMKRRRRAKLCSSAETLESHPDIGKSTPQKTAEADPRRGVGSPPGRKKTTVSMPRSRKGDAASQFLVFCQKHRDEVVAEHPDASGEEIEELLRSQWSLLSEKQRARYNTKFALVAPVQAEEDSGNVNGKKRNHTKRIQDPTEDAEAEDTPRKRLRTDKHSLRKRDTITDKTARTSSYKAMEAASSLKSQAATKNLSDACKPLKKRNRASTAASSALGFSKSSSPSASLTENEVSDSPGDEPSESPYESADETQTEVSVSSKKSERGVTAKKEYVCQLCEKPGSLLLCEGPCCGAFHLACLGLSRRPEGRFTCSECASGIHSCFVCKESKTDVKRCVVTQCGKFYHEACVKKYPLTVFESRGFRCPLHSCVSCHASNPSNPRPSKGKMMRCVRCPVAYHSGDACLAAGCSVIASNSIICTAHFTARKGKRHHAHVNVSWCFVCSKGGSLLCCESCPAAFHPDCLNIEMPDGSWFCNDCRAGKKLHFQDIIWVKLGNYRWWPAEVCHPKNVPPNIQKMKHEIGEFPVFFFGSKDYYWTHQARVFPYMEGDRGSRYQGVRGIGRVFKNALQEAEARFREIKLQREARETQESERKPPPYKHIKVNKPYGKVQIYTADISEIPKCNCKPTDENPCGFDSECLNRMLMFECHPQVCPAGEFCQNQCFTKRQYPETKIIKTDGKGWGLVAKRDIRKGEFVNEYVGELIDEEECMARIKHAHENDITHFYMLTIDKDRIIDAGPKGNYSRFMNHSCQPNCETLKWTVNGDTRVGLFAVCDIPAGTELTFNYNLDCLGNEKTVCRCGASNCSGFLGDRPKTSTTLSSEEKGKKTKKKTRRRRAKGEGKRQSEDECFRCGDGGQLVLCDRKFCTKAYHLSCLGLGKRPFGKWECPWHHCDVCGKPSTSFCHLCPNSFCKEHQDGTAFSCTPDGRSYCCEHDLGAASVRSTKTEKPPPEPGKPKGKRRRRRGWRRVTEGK

[3] = biological target: T3, Apoptotic protease-activating factor 1 (Homo sapiens, UniProt O14727); assay type: functional
T3 sequence (O14727 whole entry): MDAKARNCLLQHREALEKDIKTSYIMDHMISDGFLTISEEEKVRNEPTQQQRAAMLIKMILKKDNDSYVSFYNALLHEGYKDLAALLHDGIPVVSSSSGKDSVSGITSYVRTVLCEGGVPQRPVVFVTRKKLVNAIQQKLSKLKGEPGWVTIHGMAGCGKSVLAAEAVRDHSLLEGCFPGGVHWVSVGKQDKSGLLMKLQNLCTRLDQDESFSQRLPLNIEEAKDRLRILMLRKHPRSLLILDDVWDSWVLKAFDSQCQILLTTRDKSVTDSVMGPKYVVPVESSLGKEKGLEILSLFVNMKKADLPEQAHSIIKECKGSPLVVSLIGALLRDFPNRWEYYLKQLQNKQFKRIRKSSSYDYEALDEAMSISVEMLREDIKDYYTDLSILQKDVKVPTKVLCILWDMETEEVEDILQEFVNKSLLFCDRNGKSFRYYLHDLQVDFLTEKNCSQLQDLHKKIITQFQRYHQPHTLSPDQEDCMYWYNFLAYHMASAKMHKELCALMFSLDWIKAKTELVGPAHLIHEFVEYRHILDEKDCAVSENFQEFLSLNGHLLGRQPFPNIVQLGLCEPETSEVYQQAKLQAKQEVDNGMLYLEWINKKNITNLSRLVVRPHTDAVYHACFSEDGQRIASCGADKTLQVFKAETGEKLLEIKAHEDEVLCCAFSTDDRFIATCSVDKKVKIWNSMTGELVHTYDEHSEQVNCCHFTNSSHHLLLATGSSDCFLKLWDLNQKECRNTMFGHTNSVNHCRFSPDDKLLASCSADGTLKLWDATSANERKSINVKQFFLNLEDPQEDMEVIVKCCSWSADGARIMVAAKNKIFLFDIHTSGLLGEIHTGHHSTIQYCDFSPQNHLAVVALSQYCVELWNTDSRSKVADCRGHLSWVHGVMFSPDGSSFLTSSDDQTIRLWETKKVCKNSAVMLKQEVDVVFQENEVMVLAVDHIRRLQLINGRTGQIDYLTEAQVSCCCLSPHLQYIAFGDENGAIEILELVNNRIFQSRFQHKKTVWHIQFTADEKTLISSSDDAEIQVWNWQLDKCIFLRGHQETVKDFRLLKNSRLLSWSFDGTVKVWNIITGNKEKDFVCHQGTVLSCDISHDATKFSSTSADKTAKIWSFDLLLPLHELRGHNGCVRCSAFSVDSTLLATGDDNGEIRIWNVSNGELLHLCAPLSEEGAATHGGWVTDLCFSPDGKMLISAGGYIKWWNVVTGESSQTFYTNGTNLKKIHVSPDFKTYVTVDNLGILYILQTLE

[4] = biological target: Serine/threonine-protein kinase Chk1 (Homo sapiens, UniProt O14757); assay type: functional;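 note: measured as one member of a kinome-wide kinase profiling panel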
[5] = biological target: Tyrosine-protein kinase ABL1 (Homo sapiens, UniProt P00519); assay type: functional
Chain of Tyrosine-protein kinase ABL1 (P00519 whole entry): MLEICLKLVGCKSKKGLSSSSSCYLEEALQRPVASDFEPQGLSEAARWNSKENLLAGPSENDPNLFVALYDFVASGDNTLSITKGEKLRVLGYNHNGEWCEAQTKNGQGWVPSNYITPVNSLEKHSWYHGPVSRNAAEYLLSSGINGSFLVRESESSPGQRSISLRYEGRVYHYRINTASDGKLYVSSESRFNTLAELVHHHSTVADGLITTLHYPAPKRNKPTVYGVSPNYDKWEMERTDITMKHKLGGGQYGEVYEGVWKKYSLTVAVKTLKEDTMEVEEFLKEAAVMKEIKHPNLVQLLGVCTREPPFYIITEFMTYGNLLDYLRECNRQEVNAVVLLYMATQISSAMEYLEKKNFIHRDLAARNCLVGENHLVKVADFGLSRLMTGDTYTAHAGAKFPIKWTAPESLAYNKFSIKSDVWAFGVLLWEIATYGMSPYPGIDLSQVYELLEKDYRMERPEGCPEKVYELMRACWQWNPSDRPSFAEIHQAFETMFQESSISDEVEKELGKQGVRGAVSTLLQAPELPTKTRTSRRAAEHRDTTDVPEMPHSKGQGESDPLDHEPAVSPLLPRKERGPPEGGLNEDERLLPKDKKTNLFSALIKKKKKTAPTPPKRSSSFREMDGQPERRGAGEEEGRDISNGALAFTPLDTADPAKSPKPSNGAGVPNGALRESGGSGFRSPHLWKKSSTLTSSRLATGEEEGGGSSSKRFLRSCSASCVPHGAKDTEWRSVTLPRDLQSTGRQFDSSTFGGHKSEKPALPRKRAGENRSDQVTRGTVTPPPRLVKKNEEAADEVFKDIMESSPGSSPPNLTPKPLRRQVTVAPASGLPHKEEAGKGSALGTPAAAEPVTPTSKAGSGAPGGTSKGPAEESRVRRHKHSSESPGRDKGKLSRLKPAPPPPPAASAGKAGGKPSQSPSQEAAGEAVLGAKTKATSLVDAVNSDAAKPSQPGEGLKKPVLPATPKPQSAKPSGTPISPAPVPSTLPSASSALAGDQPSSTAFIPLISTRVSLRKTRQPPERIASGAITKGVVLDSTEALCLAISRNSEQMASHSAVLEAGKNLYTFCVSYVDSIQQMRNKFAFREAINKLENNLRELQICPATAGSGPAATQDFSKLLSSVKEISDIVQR

Chain of Serine/threonine-protein kinase Chk1 (O14757 whole entry): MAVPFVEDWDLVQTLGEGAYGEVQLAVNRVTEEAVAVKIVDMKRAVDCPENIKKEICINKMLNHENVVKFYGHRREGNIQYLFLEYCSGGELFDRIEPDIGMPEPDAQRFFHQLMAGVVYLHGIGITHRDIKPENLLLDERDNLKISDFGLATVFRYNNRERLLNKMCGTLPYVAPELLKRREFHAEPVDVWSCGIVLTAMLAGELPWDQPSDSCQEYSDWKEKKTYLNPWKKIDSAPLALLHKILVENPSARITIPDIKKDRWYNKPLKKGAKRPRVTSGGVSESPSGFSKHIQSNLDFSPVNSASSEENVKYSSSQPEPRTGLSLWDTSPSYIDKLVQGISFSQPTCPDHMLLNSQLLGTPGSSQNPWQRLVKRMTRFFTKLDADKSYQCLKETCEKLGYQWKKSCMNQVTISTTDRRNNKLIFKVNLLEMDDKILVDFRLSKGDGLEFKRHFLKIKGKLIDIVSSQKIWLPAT

Row | Ki [4] | Ki [5] | Compound | IC50 [1] | AC50 [2] | IC50 [3]
1 |  |  | CC1(C)C=C2C(=NN(c3ccccc3)C(N)=C2C#N)CO1 | 1.27 µM (active) | 5.67 µM (active) | 1.38 µM (active)
2 | > 3.16 µM (inactive) | 0.794 µM (active) | Cc1ccc(-c2cc3nc(Br)cnc3[nH]2)cc1 |  |  | 
3 |  |  | CC(=O)N(C1=C(Cl)C(=O)c2ccccc2C1=O)c1ccc(C(=O)O)cc1 | 9.4 µM (active) | 3.29 µM (active) | 2.92 µM (active)
